The text below walks through data of patent publication US6472391B2, “Nitrogen-containing heterocyclic compounds” (Millennium Pharmaceuticals, Inc., priority 1996, dated 2002).

Molecules are shown by their SMILES.

What is called melting point is the temperature, or range, at which the solid turns liquid. In turn, `Cl.Cl.S=C(NCc1cccnc1)N1CCN(c2ncnc3cccc(Cl)c23)CC1` gave a melting point of 150 to 152 °C. The figure for `COc1cc2c(N3CCN(C(=O)Nc4ccc(Oc5ccccc5)cc4)CC3)ncnc2cc1C` [Compound 333, 4-(6-Methoxy-7-methyl-4-quinazolinyl)-N-(4-phenoxyphenyl)-1-piperazinecarboxamide] is 188 to 189 °C; for `CCOC(=O)c1cnc2cc(OC)c(OC)cc2c1N1CCN(C(=S)NCc2cccnc2)CC1` [Compound 410, 4-(6,7-Dimethoxy-3-ethoxycarbonyl-4-quinolyl)-N-(3-picolyl)-1-piperazinethiocarboxamide] it is 92 to 94 °C. In the case of `COc1cc2ncnc(N3CCN(C(=S)Nc4ccc(C(F)(F)F)cc4)CC3)c2cc1OC` [Compound 159, 4-(6,7-Dimethoxy-4-quinazolinyl)-N-(4-trifluoromethylphenyl)-1-piperazinethiocarboxamide], the melting point is 117 to 119 °C. In the case of `S=C(NCc1cccnc1)N1CCN(c2ncnc3cc4c(cc23)OCO4)CC1` [Compound 371, 4-(6,7-Methylenedioxy-4-quinazolinyl)-N-(3-picolyl)-1-piperazinethiocarboxamide], the melting point was in the range of 167 to 168 °C.

As for `COc1cc2ncnc(N3CCN(C(=O)Nc4ccc([N+](=O)[O-])cc4Cl)CC3)c2cc1OC` [Compound 82, N-(2-Chloro-4-nitrophenyl)-4-(6,7-dimethoxy-4-quinazolinyl)-1-piperazinecarboxamide], the melting point lay in the range of 194 to 195 °C.

On to `O=C(Nc1ccc(Oc2ccccc2)cc1)N1CCN(c2ccnc3cc(C(F)(F)F)ccc23)CC1` [Compound 404, N-(4-Phenoxyphenyl)-4-(7-trifluoromethyl-4-quinolyl)-1-piperazinecarboxamide], for which the melting point was 163 to 164 °C.

Compound `Cc1ccc2c(N3CCN(C(=S)NCc4ccccc4)CC3)ncnc2c1` [Compound 314, N-Benzyl-4-(7-methyl-4-quinazolinyl)-1-piperazinethiocarboxamide] came in with a melting point of 177 to 178 °C. The compound `COc1cc2ncnc(N3CCN(C(=O)NCc4ccc(Br)cc4)CC3)c2cc1OC` [Compound 184, N-(4-Bromobenzyl)-4-(6,7-dimethoxy-4-quinazolinyl)-1-piperazinecarboxamide] returned a melting point of 211 to 212 °C.

In turn, `COc1cc2ncnc(N3CCN(C(=O)Nc4ccc(Cl)cc4)CC3)c2cc1OC` [Compound 40, N-(4-Chlorophenyl)-4-(6,7-dimethoxy-4-quinazolinyl)-1-piperazinecarboxamide] showed a melting point of 217 to 219 °C. `COc1cc2ncnc(N3CCN(C(=S)N[C@@H](C)c4ccccc4)CC3)c2cc1OC` [Compound 129, (S)-4-(6,7-Dimethoxy-4-quinazolinyl)-N-(1-phenylethyl)-1-piperazinethiocarboxamide] gave a melting point of 98 to 100 °C. As for `CCCn1c(=O)n(CCC)c2cc3c(N4CCN(C(=O)Nc5ccc(Oc6ccccc6)cc5)CC4)ncnc3cc21` [Compound 389, 4-(1,3-Dihydro-1,3-dipropyl-2-oxo-2H-imidazo[4,5-g]quinazolin-8-yl)-N-(4-phenoxyphenyl)-1-piperazinecarboxamide], the figure is 179 to 180 °C; as for `O=C(Nc1ccc([N+](=O)[O-])cc1)N1CCN(c2ncnc3cc4ccccc4cc23)CC1` [Compound 364, 4-(4-Benzo[g]quinazolinyl)-N-(4-nitrophenyl)-1-piperazinecarboxamide], 272 to 275 °C; as for `COc1cc2ncnc(N3CCN(C(=S)Nc4cccc(C#N)c4)CC3)c2cc1OC` [Compound 238, N-(3-Cyanophenyl)-4-(6,7-dimethoxy-4-quinazolinyl)-1-piperazinethiocarboxamide], 169 to 170 °C.

Compound `COc1cc2nc(Cl)nc(N3CCN(C(=O)Nc4ccc(Oc5ccccc5)cc4)CC3)c2cc1OC` [Compound 392, 4-(2-Chloro-6,7-dimethoxy-4-quinazolinyl)-N-(4-phenoxyphenyl)-1-piperazinecarboxamide] gave a melting point of 178 to 179 °C. In the case of `COc1cc2ncnc(N3CCN(C(=O)Nc4cccc(C)c4)CC3)c2cc1OC` [Compound 144, 4-(6,7-Dimethoxy-4-quinazolinyl)-N-(3-tolyl)-1-piperazinecarboxamide], the melting point was in the range of 218 to 219 °C. `Cn1c(=O)n(C)c2cc3c(N4CCN(C(=O)Nc5ccc([N+](=O)[O-])cc5)CC4)ncnc3cc21` [Compound 386, 4-(1,3-Dihydro-1,3-dimethyl-2-oxo-2H-imidazo[4,5-g]quinazolin-8-yl)-N-(4-nitrophenyl)-1-piperazinecarboxamide]: the melting point was 299 to 300 °C. As for `N#Cc1ccc(NC(=O)N2CCN(c3ncnc4cc5c(cc34)OCCO5)CC2)cc1` [Compound 373, N-(4-Cyanophenyl)-4-(6,7-ethylenedioxy-4-quinazolinyl)-1-piperazinecarboxamide], the figure is 246 to 247 °C; as for `COc1cc2ncnc(N3CCCN(C(=O)Nc4ccc([N+](=O)[O-])cc4)CC3)c2cc1OC` [Compound 112, 4-(6,7-Dimethoxy-4-quinazolinyl)-N-(4-nitrophenyl)-1-homopiperazinecarboxamide], 243 to 244 °C. `COc1cc2ncnc(N3CCN(C(=O)Nc4c(Cl)cccc4Cl)CC3)c2cc1OC` [Compound 52, N-(2,6-Dichlorophenyl)-4-(6,7-dimethoxy-4-quinazolinyl)-1-piperazinecarboxamide]: the melting point fell in the range of 202 to 207 °C. Regarding `COc1cc2ncnc(N3CCN(C(=S)NCc4ccc(C)cc4)CC3)c2cc1OC` [Compound 147, 4-(6,7-Dimethoxy-4-quinazolinyl)-N-(4-methylbenzyl)-1-piperazinethiocarboxamide], the melting point is 202 to 204 °C.

Compound `COc1cc2ncnc(N3CCN(C(=O)N(c4ccccc4)c4ccccc4)CC3)c2cc1OC` [Compound 116, 4-(6,7-Dimethoxy-4-quinazolinyl)-N,N-diphenyl-1-piperazinecarboxamide] returned a melting point of 196 to 197 °C. For `COc1cc2ncnc(N3CCN(C(=S)NC(=O)c4ccco4)CC3)c2cc1OC` [Compound 95, 4-(6,7-Dimethoxy-4-quinazolinyl)-N-(2-furoyl)-1-piperazinethiocarboxamide], the melting point lay within 187 to 189 °C. Consider `CCOc1cc2ncnc(N3CCN(C(=O)Nc4ccc(Br)cc4)CC3)c2cc1OC` [Compound 336, N-(4-Bromophenyl)-4-(7-ethoxy-6-methoxy-4-quinazolinyl)-1-piperazinecarboxamide], for which the melting point was in the range of 210 to 212 °C. In the case of `COc1cc2ncnc(N3CCN(C(=S)Nc4ccc(OCc5ccccc5)cc4)CC3)c2cc1OC` [Compound 63, N-(4-Benzyloxyphenyl)-4-(6,7-dimethoxy-4-quinazolinyl)-1-piperazinethiocarboxamide], the melting point was in the range of 103 to 105 °C.

In turn, `S=C(NCc1ccccc1)N1CCN(c2ccnc3cc(Cl)ccc23)CC1` [Compound 405, N-Benzyl-4-(7-chloro-4-quinolyl)-1-piperazinethiocarboxamide] had a melting point of 84 to 86 °C. With `COc1cc2ncnc(N3CCN(C(=S)NCc4ccccc4Cl)CC3)c2cc1OC` [Compound 176, N-(2-Chlorobenzyl)-4-(6,7-dimethoxy-4-quinazolinyl)-1-piperazinethiocarboxamide], the melting point lay in the range of 175 to 176 °C. `COc1cc2ncnc(N3CCCN(C(=S)NCc4ccccc4)CC3)c2cc1OC` [Compound 436, N-Benzyl-4-(6,7-dimethoxy-4-quinazolinyl)-1-homopiperazinethiocarboxamide]: the melting point is 86 to 88 °C. As for `COc1cc2ccnc(N3CCN(C(=S)NCc4cccnc4)CC3)c2cc1OC.Cl.Cl`, the figure is 195 to 197 °C; as for `CC(=O)c1ccc(NC(=O)N2CCN(c3ncnc4ccc(Cl)cc34)CC2)cc1` [Compound 302, N-(4-Acetylphenyl)-4-(6-chloro-4-quinazolinyl)-1-piperazinecarboxamide], 207 to 208 °C; as for `COc1cc2ncnc(N3CCN(C(=S)Nc4ccc(I)cc4)CC3)c2cc1OC` [Compound 47, 4-(6,7-Dimethoxy-4-quinazolinyl)-N-(4-iodophenyl)-1-piperazinethiocarboxamide], 129 to 132 °C. In turn, `COc1cc2ncnc(N3CCN(C(=O)NCc4ccc(F)cc4)CC3)c2cc1OC` [Compound 172, 4-(6,7-Dimethoxy-4-quinazolinyl)-N-(4-fluorobenzyl)-1-piperazinecarboxamide] came in with a melting point of 200 to 201 °C.

On to `COc1cc2ncnc(N3CCN(C(=S)Nc4ccc(Br)cc4)CC3)c2cc1OC` [Compound 182, N-(4-Bromophenyl)-4-(6,7-dimethoxy-4-quinazolinyl)-1-piperazinethiocarboxamide], for which the melting point lay in the range of 170 to 171 °C. The figure for `COc1cc2ncnc(N3CCN(C(=O)Nc4cccc([N+](=O)[O-])c4)CC3)c2cc1OC` [Compound 76, 4-(6,7-Dimethoxy-4-quinazolinyl)-N-(3-nitrophenyl)-1-piperazinecarboxamide] is 123 to 125 °C; for `COc1cc2ncnc(N3CCN(C(=O)Nc4ccc(N(C)C)cc4)CC3)c2cc1OC` [Compound 222, 4-(6,7-Dimethoxy-4-quinazolinyl)-N-(4-dimethylaminophenyl)-1-piperazinecarboxamide] it is 252 to 254 °C.

In turn, `COc1cc2ncnc(N3CCN(C(=O)Nc4cccc(C#N)c4)CC3)c2cc1OC` [Compound 84, N-(3-Cyanophenyl)-4-(6,7-dimethoxy-4-quinazolinyl)-1-piperazinecarboxamide] came in with a melting point of 240 to 244 °C. `O=C(Nc1ccc(Oc2ccccc2)cc1)N1CCN(c2ncnc3ccc(I)cc23)CC1` [Compound 305, 4-(6-Iodo-4-quinazolinyl)-N-(4-phenoxyphenyl)-1-piperazinecarboxamide] returned a melting point of 184 to 185 °C. On to `O=C(Nc1ccc(Oc2ccccc2)cc1)N1CCN(c2nncc3ccccc23)CC1` [Compound 414, N-(4-Phenoxyphenyl)-4-(1-phthalazinyl)-1-piperazinecarboxamide], for which the melting point fell in the range of 202 to 203 °C. On to `CCCOc1ccc(NC(=O)N2CCN(c3ncnc4cc(OC)c(OC)cc34)CC2)cc1` [Compound 201, 4-(6,7-Dimethoxy-4-quinazolinyl)-N-(4-propoxyphenyl)-1-piperazinecarboxamide], for which the melting point lay in the range of 218 to 220 °C.
